Source: patent US6245801A, “Branched alkyl pyrrolidine-3-carboxylic acids” (Warner-Lambert Company, priority 2000, dated 2001)

Key:
[1] = molecular target: T1, α2δ subunit of a calcium channel (Sus scrofa, UniProt A0A287BIN3); assay: [3H]gabapentin (GAP) radioligand binding assay, α2δ subunit; set-up: species or system porcine (brain tissue)
T1 construct: α2δ subunit derived from porcine brain tissue; from tissue; host or cells: porcine brain tissue

NA Release = assay: NA Release, % inhibition; settings: @ 100 μM
Vogel = assay: Vogel; type: in vivo; settings: relative to C1-1008
Sys L = assay: Sys L; settings: Table I
[2] = test system: carrageenin-induced hyperalgesia; assay: CITH / carrageenin-induced hyperalgesia; type: in vivo, rat (male Sprague-Dawley); settings: for CITH % MPE 1 h / CITH % MPE 2 h: Table I; for percent of maximum possible effect (MPE): 30 mg/kg orally
Description: Carrageenin-Induced Hyperalgesia
Nociceptive pressure thresholds were measured in the rat paw pressure test using an analgesymeter (Randall-Selitto method: Randall L. O. and Selitto J. J., "A method for measurement of analgesic activity on inflamed tissue," Arch. Int. Pharmacodyn., 1957;4:409-419). Male Sprague-Dawley rats (70-90 g) were trained on this apparatus before the test day. Pressure was gradually applied to the hind paw of each rat and nociceptive thresholds were determined as the pressure (g) required to elicit paw withdrawal. A cutoff point of 250 g was used to prevent any tissue damage to the paw. On the test day, two to three baseline measurements were taken before animals were administered 100 μL of 2% carrageenin by intraplantar injection into the right hind paw. […] Animals were dosed with either gabapentin ([…].), morphine (3 mg/kg, s.c.) or saline at 3.5 hours after carageenin and nociceptive thresholds were examined at 4, 4.5, and 5 hours postcarrageenin.
(R)-2-Aza-spiro[4.5]decane-4-carboxylic acid hydrochloride was tested in the above carrageenan-induced hyperalgesia model. The compound was dosed orally at 30 mg/kg, and 1 hour postdose gave a percent of maximum possible effect (MPE) of 53%. At 2 hours postdose, it gave only 4.6% of MPE.

DBA/2 mice = assay: DBA2 mouse model of anticonvulsant efficacy (sound-induced seizures); type: in vivo, mouse (male DBA/2); settings: time not printed
Description: DBA2 Mouse Model of Anticonvulsant Efficacy
All procedures were carried out in compliance with the NIH Guide for the Care and Use of Laboratory Animals under a protocol approved by the Parke-Davis Animal Use Committee. Male DBA/2 mice, 3 to 4 weeks old were obtained from Jackson Laboratories Bar Harbour, Me. Immediately before anticonvulsant testing, mice were placed upon a wire mesh, 4 inches square, suspended from a steel rod. The square was slowly inverted through 180° and mice observed for 30 seconds. Any mouse falling from the wire mesh was scored as ataxic (Coughenour L. L., McLean J. R., Parker R. B., "A new device for the rapid measurement of impaired motor function in mice," Pharm. Biochem. Behav., 1977;6(3):351-3). Mice were placed into an enclosed acrylic plastic chamber (21 cm height, approximately 30 cm diameter) with a high-frequency speaker (4 cm diameter) in the center of the top lid. An audio signal generator (Protek model B-810) was used to produce a continuous sinusoidal tone that was swept linearly in frequency between 8 kHz and 16 kHz once each 10 msec. The average sound pressure level (SPL) during stimulation was approximately 100 dB at the floor of the chamber. Mice were placed within the chamber and allowed to acclimatize for one minute. DBA/2 mice in the vehicle-treated group responded to the sound stimulus (applied until tonic extension occurred, or for a maximum of 60 sec) with a characteristic seizure sequence consisting of wild running followed by clonic seizures, and later by tonic extension, and finally by respiratory arrest and death in 80% or more of the mice. In vehicle-treated mice, the entire sequence of seizures to respiratory arrest lasts approximately 15 to 20 seconds. The incidence of all the seizure phases in the drug-treated and vehicle-treated mice was recorded, and the occurrence of tonic seizures were used for calculating anticonvulsant ED50 values by probit analysis (Litchfield J. T., Wilcoxon F. "A simplified method for evaluating dose-effect experiments," J. Pharmacol., 1949;96:99-113). Mice were used only once for testing at each dose point. Groups of DBA/2 mice (n=5-10 per dose) were tested for sound-induced seizure responses 2 hours (previously determined time of peak effect) after given drug orally. All drugs in the present study were dissolved in distilled water and given by oral gavage in a volume of 10 mL/kg of body weight. Compounds that are insoluble will be suspended in 1% carboxymethocellulose. Doses are expressed as weight of the active drug moiety.

T1 sequence (A0A287BIN3 entry or part of it): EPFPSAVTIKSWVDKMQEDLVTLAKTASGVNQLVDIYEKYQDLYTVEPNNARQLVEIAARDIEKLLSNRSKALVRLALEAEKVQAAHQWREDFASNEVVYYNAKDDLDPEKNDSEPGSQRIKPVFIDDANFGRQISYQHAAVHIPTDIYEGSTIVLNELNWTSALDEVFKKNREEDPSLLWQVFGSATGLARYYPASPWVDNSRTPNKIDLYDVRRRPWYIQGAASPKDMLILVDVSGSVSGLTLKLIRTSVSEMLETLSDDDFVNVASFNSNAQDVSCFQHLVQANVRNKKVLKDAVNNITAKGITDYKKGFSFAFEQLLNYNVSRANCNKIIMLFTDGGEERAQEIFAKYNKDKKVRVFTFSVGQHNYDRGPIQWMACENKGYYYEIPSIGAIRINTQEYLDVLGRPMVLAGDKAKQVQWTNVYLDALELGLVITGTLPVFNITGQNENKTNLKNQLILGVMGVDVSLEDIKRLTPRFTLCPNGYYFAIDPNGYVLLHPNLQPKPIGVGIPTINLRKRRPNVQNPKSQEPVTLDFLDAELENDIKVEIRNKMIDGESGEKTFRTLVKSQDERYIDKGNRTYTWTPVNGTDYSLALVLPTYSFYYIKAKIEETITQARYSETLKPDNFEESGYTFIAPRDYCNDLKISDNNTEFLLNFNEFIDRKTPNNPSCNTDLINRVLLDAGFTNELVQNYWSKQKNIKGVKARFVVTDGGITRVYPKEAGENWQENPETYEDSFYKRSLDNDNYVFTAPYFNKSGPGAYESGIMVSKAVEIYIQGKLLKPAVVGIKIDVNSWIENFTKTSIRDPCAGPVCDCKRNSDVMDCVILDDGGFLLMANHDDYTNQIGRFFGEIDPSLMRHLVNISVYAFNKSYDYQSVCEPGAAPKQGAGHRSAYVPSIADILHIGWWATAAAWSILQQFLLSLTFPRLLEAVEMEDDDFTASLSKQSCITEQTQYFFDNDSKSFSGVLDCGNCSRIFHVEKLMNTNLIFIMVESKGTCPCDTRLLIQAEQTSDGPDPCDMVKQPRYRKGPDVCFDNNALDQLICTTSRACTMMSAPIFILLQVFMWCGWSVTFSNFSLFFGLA

SMILES	IC50 [1]	Vogel % of C1-1008 (Vogel)	CITH % MPE 1 h [2]	CITH % MPE 2 h [2]	DBA 2 % Protect (time) (DBA/2 mice; first value of the column)	DBA 2 % Protect (time) (DBA/2 mice; second value of the column)	also measured
CCCC[C@H]1CNC[C@@H]1C(=O)O (relative stereo)	64 nM	–	–	–	–	–	–
CC(C)C[C@@H]1CNC[C@H]1C(=O)O	–	-0.63 % of C1-1008	–	–	–	–	NA Release % Inhibition (NA Release): 8%
CCC[C@H]1CNC[C@@H]1C(=O)O (relative stereo)	30 nM	–	–	–	–	–	–
CC(C)C[C@H]1CNC[C@H]1C(=O)O (stereo in doubt) [Example 1, (cis)-4-Isobutyl-pyrrolidine-3-carboxylic acid]	135 nM	–	–	–	–	–	–
CC(C)C[C@H](CN)CC(=O)O [reference compound]	87 nM	100 % of C1-1008	52.5 % MPE	50.1 % MPE	100%	100%	IC50 (Sys L): 193 µM
CC(C)C[C@@H]1CNC[C@@H]1C(=O)O (stereo in doubt)	700 nM	–	23 % MPE	3.3 % MPE	0%	0%	–
CC1(C)CNCC1C(=O)O (racemic)	1190 nM	–	–	–	–	–	–
C[C@H]1CNC[C@@H]1C(=O)O (relative stereo)	3100 nM	–	–	–	–	–	–
CC(C)C[C@H]1CNC[C@@H]1C(=O)O (stereo in doubt)	–	–	3 % MPE	-15 % MPE	0%	0%	–
CC(C)[C@H]1CNC[C@@H]1C(=O)O (relative stereo)	543 nM	–	–	–	–	–	–
CC(C)C[C@H]1CNC[C@@H]1C(=O)O	–	0.63 % of C1-1008	–	–	20%	40%	NA Release % Inhibition (NA Release): 16%
Cl.O=C(O)[C@H]1CNCC12CCCCC2 [(R)-2-Aza-spiro[4.5]decane-4-carboxylic acid hydrochloride]	120 nM	–	53 % MPE	4.6 % MPE	20%	20%	IC50 (Sys L): > 10000 µM; percent of maximum possible effect (MPE) ([2]; 1 hour postdose): 53%; percent of maximum possible effect (MPE) ([2]; 2 hours postdose): 4.6%
NCC1(CC(=O)O)CCCCC1 [reference compound]	–	63.7 % of C1-1008	48.9 % MPE	19.9 % MPE	100%	–	IC50 (Sys L): 25 µM
